According to patent US20180105492A1, “COMPOUNDS DERIVED FROM 3-ALKYLAMINE-1H-INDOLYL ACRYLATE AND THEIR USE IN THE TREATMENT OF NEURODEGENERATIVE DISEASES” (FUNDACION PARA LA INVESTIGACION BIOMEDICA DEL HOSPITAL …, priority 2014, published 2018):

How the values were obtained:
Assay type in all cases: cell-based
[1] = test system: SH-SY5Y cells; test: Neuroprotection against oxidative stress induced by menadione, pre- and co-incubation, MTT; conditions: Homo sapiens, 24 h, compound 1 μM pre- and co-incubation, Menadione (8 mM)
Method: (§1) SH-SY5Y cells [ECACC 94030304], in 5 to 16 passage after defreezing were maintained in Eagle media modified by Dulbecco (DMEM) containing 15 non-essential amino acids and supplemented with 10% fetal bovine serum, 1 mM glutamine, 50 units/mL penicillin/streptomycin (obtained from GIBCO, Madrid, Spain). Cells were seeded in flasks containing supplemented media and were maintained in an incubator at 37° C. and 5% CO2. 1:4 passes were performed twice per week. For the experiments, cells were seeded in 24 well-plates at a density of 2×10^5 cells/well, or in 96 well-plates at a density of 8×10^4 cells/well. For cytotoxicity experiments, cells were treated with the compounds before confluence with DMEM media supplemented with fetal bovine serum 1%.
(§2) In order to assess cellular viability, we measured the metabolic reduction of 3-(4,5-Dimethylthiazol-2-yl)-2,5 diphenyltetrazolium bromide (MTT). MTT is an indirect assay to measure cellular viability. It is a colorimetric method based on the reduction of 3-(4,5-Dimethylthiazol-2-yl)-2,5 diphenyltetrazolium. This process is performed by the mitochondrial enzyme succinate-dehydrogenase present in metabolic active cells. Thus, the water-soluble yellow MTT (tetrazolium salt) is transformed into a insoluble purple compound (formazan). Quantity of living cells is directly proportional to the quantity of formazan (Mosmann, 1983, J Immunol Methods, 65: 55-63). […] Therefore, with this assay we can measure cellular surviving and proliferation and also, we can determine the cytotoxicity of potential neuroprotective compounds. In order to assess cellular viability in SH-SY5Y cell line, we added 30 μl/well of MTT (5 mg/mL) and after 2 h, medium was carefully removed to avoid losing the formazan and was diluted in 300 μL of DMSO. Afterwards, samples were transferred to a 96 well-plate and the absorbance was measured at 570 nm using a absorbance/fluorescence reader FluoStar optima®. Every MTT assay was performed in triplicates. Absorbance values obtained with the toxic alone were subtracted to the absorbance values obtained in basal conditions (without treatment). That result was considered as the 100% of cell death and the values obtained with the compounds in the presence of the toxic stimulus were normalized as percentages of that value. For determining the surviving percentage, those percentages of cell death were subtracted to 100.
(§3) Neuroprotection elicited by the compounds of the invention 1-16: The activation of Nrf2-ARE pathway by different compounds exerts neuroprotective effects against toxic models based on oxidative stress via the expression of cytoprotective genes. […] We evaluated the neuroprotective potential of the compounds using the human neuroblastoma cell line using the following cytotoxicity models: 1) oxidative stress induced by rotenone+oligomycin, both blockers of the electron transport chain as previously described (Halliwell, 1992, J Neurochem, 59: 1609-23, Newhouse y col., 2004, Toxicol Sci, 79: 137-46), and 2) cytotoxicity induced by the electrophilic compound Menadione. This compound produces oxidative stress after being metabolized by microsomal enzymes in the cell which produces hydroxyl radical and oxygen reactive species. As a consequence, there is a depolarization of mitochondrial membrane generating a release of apoptotic factors such as cytochrome c, and activating the caspase cascade (Loor y col., 2010, Free Radic Biol Med, 49: 1925-36, Chuang y col., 2002, Cancer Res, 62: 6246-54). Caspase 3 activation can produce the lysis of proteins and induce DNA fragmentation, leading to cell death (Gerasimenko y col., 2002, J Cell Sci, 115: 485-97).
To further confirm the neuroprotective capacity in another model of oxidative stress, menadione was selected as toxic stimulus. […]

[2] = test system: SH-SY5Y cells; test: Neuroprotection against rotenone/oligomycin A, pre-incubation model, MTT; conditions: Homo sapiens, compound 1 μM pre-incubation 24 h, then Rot/Olig (30/10 μM)
Method: as §1, §2, §3
For this study we propose a protocol in which the cells are pre-incubated with each of the derivatives at 1 μM for 24 h. After the pre-incubation period, the medium was removed and replaced by culture medium with the rotenone/oligomycin-A (30 μM and 10 μM, respectively) toxic mixture. […]

[3] = test system: HepG2 cells; test: Hepatotoxicity in HepG2 cell line, reduction of cell viability (MTT); conditions: 24 h incubation, MTT, concentration reducing viability to 50% of basal
Method: as §2
In general, compounds capable of inducing the transcription factor Nrf2 may have a hepatotoxic effect, due to the electrophilic character that generally characterizes them. The derivatives objects of this invention were designed to avoid this toxicity and to improve its safety profile. The liver plays an essential role in the metabolism of endogenous and exogenous compounds. Hepatocytes capture these compounds and after metabolizing them, they are eliminated by different mechanisms. Metabolized compounds usually have less pharmacological activity and less toxicity than the corresponding active principles. However, in certain cases, the active principles or their metabolites may be toxic to the hepatocytes. Hepatic toxicity is one of the leading causes of drug withdrawal from preclinical studies. […] In addition, these cells have been defined by the European Medicines Agency (EMA) as a model of hepatoxicity by measuring the induction of apoptosis and/or cell survival. Therefore, the safety profile of the compounds object of the present invention was evaluated in the HepG2 hepatic cancer cell line. HepG2 cells were cultured in T75 flask using EMEM as culture medium supplemented with non-essential amino acids, 10% fetal bovine serum, 50 units/mL penicillin and 50 μg/mL streptomycin (reagents from GIBCO, Madrid, Spain). Cultures were maintained in an incubator with an O2/CO2 gas mixture (95/5%) at 37° C. with a humid atmosphere and two passes per week were made when they reached 90% of confluence. All experiments were performed on cells that were between passages 5 and 15. For the experiments, the cells were plated in 96-well plates at a density of 4×10 ^4 cells/well in 200 μl of culture medium. After 24 h in culture, the medium was removed and replaced with 100 μL of the corresponding solution of the compounds of the invention in culture medium at the selected concentrations (1, 10, 30 and 100 μM). The compounds were studied in triplicate, including in each experiment 3 wells without treatment, which was considered as 100% of viability (baseline conditions). After 24 h of incubation with the treatments, cell viability was assessed by the MTT reduction method. […]

## C/C=C/C(=O)Oc1ccc2[nH]cc(CCNC(C)=O)c2c1 [Compound 1, 3-(2-acetamidoethyl)-1H-indol-5-yl (E)-2-butenoate]
[1]
  % protection against menadione toxicity at 1 µM: 63.3%
[1]; read-out: % Survival
  viability at 1 µM: 87.7 ± 1.74%
[2]
  percent protection against toxin-induced cell death at 1 µM: 28.5%
[2]; read-out: % Survival
  viability at 1 µM: 70.4 ± 4.03%
[3]
  HepG2 LD50: >100 µM
